Measured values published in patent US20050113458A1, “Use of 1-aminocyclohexane derivatives to modify deposition of fibrillogenic a-beta peptides in amyloidopathies” (Forest Laboratories, Inc., priority 2003, published 2005).
“Also recorded” adds a separate entry of the source. Like-named read-outs stand apart in the source and are kept apart here.

Legend:
sAPP = sAPP levels in conditioned media by Western blotting (mAb22C11); assay type: cell-based, human; settings: SK-N-SH cells; for levels of sAPP in conditioned media: 0.25-1.0 μg/ml (1-4 μM)
Experimental: (§1) Cell culture and drug treatment. Human neuroblastoma (SK-N-SH, ATCC HTB-11, Biedler et al., Cancer Res. 1973, 33(11): 2643-52) cells were seeded at approximately 2×10^6 cells/well in a 6-well plate. Thereafter, drug concentrations of memantine were initiated at 0 μg/ml (control), 0.25 μg/ml (1 μM), 0.5 μg/ml (2 μM), and 1.0 μg/ml (4 μM) in MEM media supplemented with 1% FBS and 1× antibiotic. Treatment period was 12 days with a collection of conditioned media (CM) at 3 day intervals. Following collection, fresh memantine-media was added and the process repeated until harvest on day 12. The levels of both sAPP and Aβ40 were determined as described below.
Analysis of sAPP levels by Western blotting. Levels of total sAPP in the CM samples were measured by denaturing polyacrylamide gel electrophoresis (SDS-PAGE) followed by the Western immunoblotting using mAb22C11 antibody. Samples were loaded on the gel at equal volume of conditioned media (30 μg protein/sample). The density of specific APP bands in the blot was quantified using the NIH Image software. Levels of APP were expressed as a percent of controls. Levels of the constitutively expressed β-actin protein were measured in parallel as an internal control.
(§2) Data Analysis. Data were analyzed from 3-6 independent cell culture experiments. Statistical analysis (e.g., analysis of variance and post-hoc tests for multiple comparisons) was performed using the SPSS program (Statistical Products and Services Solutions, Chicago, Ill.) and included the mean and the standard error of the mean.

Aβ40 = Aβ40 levels in conditioned media by sandwich ELISA; assay type: cell-based, human; settings: SK-N-SH cells; for levels of Aβ40 in conditioned media: 0.25-1.0 μg/ml (1-4 μM)
Experimental: as §1
Analysis of Aβ levels by ELISA. Quantitative solid phase sandwich ELISA (enzyme linked immunosorbent assay) was used to measure Aβ40 levels in the conditioned media samples. Specifically, an affinity purified anti-human Aβ (35-40) rabbit IgG was used as a capture antibody, and affinity purified HRP-conjugated anti-human Aβ (11-28) rabbit IgG Fab was used as a detection antibody (both reagents from IBL (Japan)). Since an antibody against Aβ (11-28) was used as a secondary conjugated antibody, human Aβ40 variants which cleaved at N-terminus sites were also detectable in the ELISA assay. TMB was used as a coloring agent (Chromogen). The measurement range was from 15.6 to ˜1,000 pg/ml (3.6 to ˜230.9 pmol/l).
as §2

[1] = system: human neuroblastoma cells SK-N-SH; experiment: Cellular toxicity, LDH assay; assay type: cell-based; settings: 1-4 μM
Experimental: as §1
Cell Toxicity and Viability Assays. Cell viability in control and memantine-treated samples was measured using MTT (the tetrazolium dye 3-[4,5-dimethylthiazol-2-yl]-2,5-diphenyltetrazolium bromide). Cellular toxicity was measured uding lactate dehydrogenase (LDH) (Sigma, St. Louis, Mo.) assay.

[2] = Dose-finding pilot study: steady-state plasma concentration of memantine; assay type: in vivo, male C57BL/6J mice; settings: male, C57BL/6J, mouse, mean±SEM, read-out: steady-state plasma level
Excerpt: (§3) Transgenic mice expressing either human PS1 harboring the familial AD-linked A246E mutation or chimeric mouse/human APP695 harboring a human Aβ domain and mutations (K595N, M596L) linked to Swedish familial AD pedigrees (APPswe) (Borchelt et al., 1997) were back-crossed to C57BL/6J for 16 generations and then crossed together to generate double transgenic mice co-expressing both transgenes. In all tests, 8-month-old double-mutant male mice (APP/PS1; n=45) and their non-transgenic littermates (NT; n=36, ) were used. […] The therapeutic dose of memantine was defined as the dose producing a steady-state plasma drug level of ˜1 μM and was determined in 8-month-old male C57 BL/6J mice (background strain of the transgenic mice).
Dose-finding pilot study: A pilot study was undertaken to determine the therapeutic dose of memantine [i.e., the dose of memantine producing a steady-state plasma drug level of around 1 μM, which several preclinical and clinical studies have indicated is therapeutic (Kornhuber and Quack, 1995; Zajaczkowski et al., 1996)] to be used in subsequent experiments in transgenic mice. Memantine (Forest Research Institute, Jersey City, N.J.) was administered orally (via drinking water) to male C57BL/6J mice at the doses of 10 mg/kg/day (n=10), 30 mg/kg/day (n=10) and 100 mg/kg/day (n=10) for 4 weeks. The placebo group (n=10) had drinking water without memantine. Blood samples were taken from the femoral vein 4 weeks after the initiation of drug treatment to determine the steady-state plasma concentration of memantine. Plasma samples were analyzed at Merz Pharmaceuticals GmbH (Frankfurt am Main, Germany) using a gas chromatograph system coupled with a mass selective detector (Kornhuber and Quack., 1995).

APP/PS1 and NT mice [3] = experiment: Exploratory activity (TruScan automated activity monitor); assay type: in vivo; settings: 30 mg/kg/day in drinking water, 10-min recording
Excerpt: as §3, with “mice). […]” for “mice).”
Exploratory activity: TruScan® (Coulbourn Instruments, CO, USA) automated activity monitor based on infrared photo detection was used for monitoring exploratory activity. […] Activity was measured for 10 min in two separate sessions separated by 48 h.
Statistical analysis All statistical analyses were performed using SPSS for Windows software, version 11.5.1 (SPSS, Chicago, Ill.). The effects of genotype, treatment, training day, and their interaction with the behavioral parameters of exploratory activity and performance in the Morris water maze were evaluated by analysis of variance (ANOVA) for repeated measures. […]

APP/PS1 and NT mice [4] = experiment: Isolation-induced aggression test; assay type: in vivo; settings: 30 mg/kg/day in drinking water
Experimental: Isolation-induced aggression: All test mice (‘residents’) had been housed in individual cages for at least 3 weeks prior to the start of this test. ‘Intruders’ were NT male C57B1/J6 mice, 16-20 weeks old at the time of testing, housed in groups of 4-8 since weaning. A randomly chosen intruder was placed in the resident's cage, and aggression of the resident was assessed by measuring attack latency, i.e. the time in seconds between the introduction of the intruder into the cage and the first attack by the resident. […]

APP/PS1 and NT mice [5] = experiment: Morris water maze (spatial learning and memory); assay type: in vivo; settings: 30 mg/kg/day; for time spent in the target area, probe trial: sixth day, 60 s, mean±sem
Excerpt: as §3
Memantine treatment: Based on the pilot study, the dose of 30 mg/kg/day (see Results section for details) was chosen for the behavioral study and administered in drinking water for 3 weeks. Memantine was administered to 23 APP/PS1 mice and 19 NT mice. The placebo group (APP/PS1: n=22; NT: n=17) received drinking water without memantine. Behavioral testing started 2 weeks after treatment onset and continued for one week. After two weeks of treatment, mice were tested for exploratory activity, isolation-induced aggression, and performance in the Morris water maze.
Morris water maze: The Morris water maze was used to measure spatial learning and memory. The apparatus was a black plastic pool with a diameter of 120 cm. A black escape platform (square, 14×14 cm) was located 1.0 cm below (hidden) the water surface. The temperature of the water was kept constant throughout the experiment (20±0.5° C.), and a 10-min recovery period was allowed between the training trials. First, the mice were pre-trained to find and climb onto the platform for two days by using an alley (1 m×14 cm×25 cm) leading to the platform located 1 cm below the water. The training consisted of 8 consecutive days of testing, with 5 trials per day. […] During the first 5 days of testing the mice were trained with a hidden platform. The platform location was kept constant and the starting position varied between four constant locations at the pool rim. Mice were placed in the water with their nose pointing towards the wall at one of the starting points in a random manner. On the sixth day, the platform was removed and the mice were allowed to swim for 60 s to determine their search bias. On testing days 7 and 8, a black curtain was hung around the swimming pool in order to conceal all extra-maze visual cues. […] Timing of the latency to find the submerged platform was started and ended by the experimenter. A computer connected to an image analyzer (HVS Image®, Hampton, UK) monitored the swim pattern. During the water maze training, we measured swimming speed and latency to find the platform. The wall-swimming tendency (thigmotaxis) was assessed by dividing the pool into 3 concentric zones of equal surface area and calculating the time spent in the outer zone. Search bias during the probe trial was measured by calculating the time the mice spent in the vicinity of where the platform was previously located. We defined this as a target area centered on the platform with a diameter of 30 cm. This target area comprised 6.25% of the total surface area, thus a random swim for 60 s in the pool would yield a dwell time of 3.75 s in the target area during the probe trial.
Statistical analysis All statistical analyses were performed using SPSS for Windows software, version 11.5.1 (SPSS, Chicago, Ill.). The effects of genotype, treatment, training day, and their interaction with the behavioral parameters of exploratory activity and performance in the Morris water maze were evaluated by analysis of variance (ANOVA) for repeated measures. Attack latency from the isolation-aggression test was analyzed by two-way ANOVA with genotype and treatment as factors.

[6] = humans; Kornhuber and Quack 1995; cited from earlier work
rat hippocampal cells = settings: Miguel-Hidalgo et al. 2002; cited from earlier work
Fisher 344 rats = settings: 30 mg/kg/day for 8 weeks, Barnes et al. 1996; cited from earlier work
[7] = system: human neuroblastoma cells; settings: Lahiri et al. 1998; cited from earlier work

In the case of `CC12CC3CC(C)(C1)CC(N)(C3)C2` [memantine, 1-amino-3,5-dimethyl adamantane], the “sAPP levels in the conditioned media” value (sAPP; 1 μM for 6-12 days) is reported as “trend towards a decrease”, the “levels of sAPP in conditioned media” value (sAPP; day 3) is reported as “no significant changes” and the “levels of sAPP in conditioned media” value (sAPP; day 6) is reported as “dose-dependent decrease”. The “levels of sAPP in conditioned media” value (sAPP; day 9 and day 12) was “persisting or further decreasing”, the “sAPP levels in the conditioned media” value (sAPP; 2-4 μM for 6-12 days) was “significantly decreased” and the “levels of Aβ40 in conditioned media” value (Aβ40; day 3) was “no significant changes”. The “levels of Aβ40 in conditioned media” value (Aβ40; day 6, compared to negative control) was “significant decrease”, the “levels of Aβ40 in conditioned media” value (Aβ40; day 9, compared to negative control) was “significant decrease” and the “Aβ40 levels in the conditioned media” value (Aβ40; 1-4 μM for up to 12 days) was “a decrease in its levels”. The “cellular toxicity (LDH)” value [1] was “not affected; also recorded: no toxicity”, the concentration at 4 weeks ([2]; 10 mg/kg/day oral (drinking water)) was 490 ± 60 nM and the concentration at 4 weeks ([2]; 30 mg/kg/day oral (drinking water)) was 1140 ± 70 nM. The concentration at 4 weeks ([2]; 100 mg/kg/day oral (drinking water)) was 5540 ± 400 nM, the “horizontal activity (distance traveled)” value (APP/PS1 and NT mice [3]) was “did not significantly affect” and the “vertical activity (rearing)” value (APP/PS1 and NT mice [3]) was “did not significantly affect”. For the same molecule, the “aggressive behavior (latency to attack the intruder)” value (APP/PS1 and NT mice [4]; APP/PS1 mice) was “not significantly modified”, the aggressive behavior (APP/PS1 and NT mice [4]; NT mice) was “did not increase” and the “finding the visible platform” value (APP/PS1 and NT mice [5]; APP/PS1 mice (FIG. 11B), days 7-8) was “did not show a significant improvement”. For the same molecule, the “time spent in the outer zone of the pool (thigmotaxis)” value (APP/PS1 and NT mice [5]; APP/PS1 mice, p=0.04) was “significantly reduced”, the “time spent in the target area, probe trial” value (APP/PS1 and NT mice [5]; APP/PS1 mice) was 39.0 ± 2.0 s and the “escape latency, hidden platform” value (APP/PS1 and NT mice [5]; APP/PS1 mice, vs placebo-treated APP/PS1 mice, p=0.02) was “reduced”. The “time spent in the outer zone of the pool (thigmotaxis)” value (APP/PS1 and NT mice [5]; NT mice, p=0.004) was “significantly reduced”, the “escape latency (performance), hidden platform” value (APP/PS1 and NT mice [5]; NT mice, p=0.09 (not significant)) was “trend towards improved performance” and the “time spent in the target area, probe trial” value (APP/PS1 and NT mice [5]; NT mice) was 36.1 ± 2.6 s. The “performance level, hidden platform, compared with placebo-treated NT mice” value (APP/PS1 and NT mice [5]; memantine-treated APP/PS1 mice, Tukey's post-hoc p=0.96) was “did not differ”, the “therapeutically effective circulating concentration” value [6] was “approximately 1 μM” and the Aβ-induced apoptosis (rat hippocampal cells) was “protected”. The water maze learning (Fisher 344 rats) was “improved water maze learning”.

For `Nc1c2c(nc3ccccc13)CCCC2` [tacrine], the “cellular damage or toxicity” value [7] is given as “absence of any detectable cellular damage or toxicity”, the “release of Aβ40” value [7] is given as “reduce” and the “release of Aβ42” value [7] is given as “reduce”. The “release of sAPPα” value [7] was “reduce” and the “release of total Aβ” value [7] was “reduce”.
